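Method: 48-hour compound exposure of cells in 96-well plates, five concentrations, linear interpolation of endpoints. At the GI50, growth is halved.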 Activity calls are given as the source filed them. Rule as the data show it: active = GI50 up to about 1.1 µM and inactive = higher.

Test in all cases: NCI tumour cell line growth inhibition, 48 h
Assay [1] relates to 786-0.
Assay [2] concerns CAKI-1.
In assay [3] the test system is CCRF-CEM.
In assay [4] the test system is COLO 205.
Assay [5] relates to HCC 2998.
Assay [6] deals with IGROV-1.
Assay [7] relates to KM12.
Assay [8] relates to LOX IMVI.
Assay [9] relates to M14.
The test system of assay [10] is MDA-N.
Assay [11] has as its system MOLT-4.
Assay [12] concerns NCI-H226.
The test system of assay [13] is NCI-H23.
Assay [14] relates to NCI-H522.
For assay [15], the system named is OVCAR-4.
Assay [16] concerns SF-295.
The subject of assay [17] is SK-MEL-5.
The subject of assay [18] is SNB-19.
Assay [19] deals with UO-31.

As to `Cc1nc(N)nc(S)c1CCC(=O)O`, the GI50 in [1], in [2], in assay [3], in [4], in [5] and in assay [6] was > 100 µM (inactive) each time. The GI50 in assay [7], in [8], in assay [9], in assay [10], in assay [11] and in assay [12] was > 100 µM (inactive) throughout. The GI50 in [13], in assay [14], in assay [15], in [16], in [17] and in assay [18] was > 100 µM (inactive) throughout. The GI50 in assay [19] was > 100 µM (inactive).
Take `C=C1CC2(CC(c3ccccc3Cl)OC(c3ccccc3Cl)C2)OC1=O` (stereo not given): the GI50 in [1] is 2 µM (inactive); in assay [2] it was 2 µM (inactive); in assay [3], 1.96 µM (inactive); in assay [4], 2.31 µM (inactive); in assay [5], 3.52 µM (inactive); in assay [6] it was 2.02 µM (inactive). The GI50 is 2.33 µM (inactive) in [7]; 1.38 µM (inactive) in assay [8]; 1.71 µM (inactive) in assay [9]; 1.87 µM (inactive) in assay [10]; 2.4 µM (inactive) in assay [11]; 8.69 µM (inactive) in assay [12]. Besides, the GI50 is 3.83 µM (inactive) in assay [13]; 1.72 µM (inactive) in assay [14]; 3.9 µM (inactive) in assay [15]; 8.97 µM (inactive) in assay [16]; 4.3 µM (inactive) in assay [17]; 15.2 µM (inactive) in assay [18]. Also, the GI50 in [19] was 5.89 µM (inactive).
As to `COc1cc(C2SCC(=O)N2c2ccc(-n3c(-c4ccccc4)nc4ccccc4c3=O)cc2)ccc1O` (stereo not given), the GI50 is > 100 µM (inactive) in [1]; > 100 µM (inactive) in assay [2]; 27.2 µM (inactive) in assay [3]; > 100 µM (inactive) in assay [4]; 58.3 µM (inactive) in [5]; > 10 µM (inactive) in assay [6]. Further, the GI50 in assay [7] is 34.4 µM (inactive); in [8], 54.6 µM (inactive); in [9], > 100 µM (inactive); in assay [10], > 100 µM (inactive); in assay [11], 24.2 µM (inactive); in [12], 5.01 µM (inactive). Further, the GI50 in assay [13] is > 100 µM (inactive); in [14] it was 33 µM (inactive); in [15], 65.6 µM (inactive); in assay [16], 84.5 µM (inactive); in [17], 49.3 µM (inactive); in assay [18], > 100 µM (inactive). In addition, the GI50 in [19] is 11.8 µM (inactive).
With `Cc1n2nc(N)sc2n[n+]1CC(=O)c1ccccc1`, the GI50 in assay [1] was > 100 µM (inactive); in [2], > 100 µM (inactive); in assay [3], 70 µM (inactive); in assay [4], > 100 µM (inactive); in [5], > 100 µM (inactive); in assay [6], > 100 µM (inactive). In addition, the GI50 in [7], in assay [8], in [9], in assay [10], in assay [11] and in [12] was > 100 µM (inactive) throughout. In addition, the GI50 in assay [13], in assay [14], in assay [15], in assay [16], in assay [17] and in assay [18] was > 100 µM (inactive) in each case. For the same compound, the GI50 in assay [19] was > 100 µM (inactive).
Consider `Nc1ccccc1N/C(=C\C(=O)C(Cl)(Cl)Cl)c1ccccc1`, for which the GI50 is 20.4 µM (inactive) in [1]; 34.5 µM (inactive) in [2]; 30.2 µM (inactive) in assay [3]; 27.9 µM (inactive) in assay [4]; 17.3 µM (inactive) in assay [5]; 5.6 µM (inactive) in assay [6]. In addition, the GI50 in [7] was 33.6 µM (inactive); in assay [8], 19.5 µM (inactive); in assay [9], 20.1 µM (inactive); in assay [10], 18.1 µM (inactive); in assay [11], 23.3 µM (inactive); in assay [12], 24.2 µM (inactive). Moreover, the GI50 in assay [13] was 30.3 µM (inactive); in assay [14], 15.3 µM (inactive); in assay [15] it was 29.2 µM (inactive); in assay [16], 36.6 µM (inactive); in assay [17], 15 µM (inactive); in assay [18] it was 36.9 µM (inactive). For the same compound, the GI50 in assay [19] was 17.2 µM (inactive).
As to `c1ccc2c(c1)CCN1CCc3ccccc3C1C2` (stereo not given), the GI50 in assay [1] is 25.1 µM (inactive); in [2], 47.1 µM (inactive); in [3], 58.7 µM (inactive); in assay [4], 38 µM (inactive); in assay [5], 31.4 µM (inactive); in [6], 48 µM (inactive). The GI50 in assay [7] was 52.1 µM (inactive); in assay [8] it was 35.1 µM (inactive); in assay [9], 23.1 µM (inactive); in assay [10] it was 12.4 µM (inactive); in [11] it was 40.4 µM (inactive); in [12], 23.6 µM (inactive). In addition, the GI50 was 59.7 µM (inactive) in assay [13]; 51.9 µM (inactive) in assay [14]; > 100 µM (inactive) in assay [15]; 26.9 µM (inactive) in [16]; 17.7 µM (inactive) in assay [17]; 82.8 µM (inactive) in assay [18]. For the same compound, in assay [19], the GI50 is 18.1 µM (inactive).
On to `Cc1ccc(S(=O)(=O)[C@@H](Cl)[C@H]2N=C(Cl)NN=C2c2ccccc2)cc1`, for which the GI50 is 26.4 µM (inactive) in [1]; 41.9 µM (inactive) in assay [2]; 20.3 µM (inactive) in assay [3]; 26.9 µM (inactive) in [4]; 33.8 µM (inactive) in assay [5]; 21.8 µM (inactive) in assay [6]. Moreover, the GI50 was 22.6 µM (inactive) in assay [7]; 19.1 µM (inactive) in assay [8]; 21.2 µM (inactive) in assay [9]; 26.1 µM (inactive) in [10]; 20.6 µM (inactive) in assay [11]; 26.8 µM (inactive) in assay [12]. Also, the GI50 in [13] is 20.6 µM (inactive); in assay [14], 15.9 µM (inactive); in [15] it was 13.9 µM (inactive); in assay [16], 41.4 µM (inactive); in assay [17], 15.4 µM (inactive); in assay [18], 37.8 µM (inactive). The GI50 in assay [19] is 18.1 µM (inactive).
With `COC(=O)C1=C(C(=O)OC)N(c2ccc(OC)cc2[N+](=O)[O-])C(c2ccc(C)cc2)=CC1c1ccc(OC)cc1OC` (stereo not given), the GI50 is 11.9 µM (inactive) in assay [1]; 28 µM (inactive) in assay [2]; 3.86 µM (inactive) in assay [3]; 13.2 µM (inactive) in assay [4]; 8.28 µM (inactive) in assay [5]; 13.3 µM (inactive) in [6]. Further, the GI50 in assay [7] was 4.27 µM (inactive); in [8] it was 2.36 µM (inactive); in [9], 17.2 µM (inactive); in assay [10], 4.62 µM (inactive); in assay [11], 8.79 µM (inactive); in [12], 18.3 µM (inactive). Further, the GI50 in assay [13] is 22.4 µM (inactive); in [14] it was 14.1 µM (inactive); in assay [15], 44 µM (inactive); in assay [16] it was 29 µM (inactive); in assay [17], 26.2 µM (inactive); in assay [18], 34.7 µM (inactive). The GI50 in [19] was 11.7 µM (inactive).
In the case of `Cc1sc2nc3n(c(=O)c2c1C)N=CN(c1ccccc1)C3`, the GI50 is 15.8 µM (inactive) in assay [1]; 36 µM (inactive) in assay [2]; > 100 µM (inactive) in assay [3]; > 100 µM (inactive) in [4]; 60.5 µM (inactive) in assay [5]; > 100 µM (inactive) in [6]. In addition, the GI50 in [7], in assay [8], in [9], in assay [10], in assay [11] and in assay [12] was > 100 µM (inactive) in each case. The GI50 in assay [13] was > 100 µM (inactive); in assay [14], 38.5 µM (inactive); in [15], 30.1 µM (inactive); in assay [16] it was 84.9 µM (inactive); in assay [17], > 100 µM (inactive); in [18], 35.5 µM (inactive). Moreover, the GI50 in [19] is > 100 µM (inactive).
`CC(=O)Nc1ccc2c3c(cc(O)c2c1)N(C(=O)CCCCCCC(=O)N1CC(CCl)c2c1cc(O)c1cc(NC(C)=O)ccc21)CC3CCl` (stereo not given): the GI50 in assay [1] is < 0.01 µM (active); in assay [2] it was < 0.0152 µM (active); in assay [3], < 0.01 µM (active); in assay [4], 0.0105 µM (active); in assay [5] it was < 0.01 µM (active); in [6] it was 0.015 µM (active). The GI50 in [7] is 0.0249 µM (active); in assay [8], < 0.01 µM (active); in assay [9], < 0.01 µM (active); in [10], < 0.01 µM (active); in [11] it was < 0.01 µM (active); in [12], < 0.01 µM (active). Also, the GI50 was < 0.01 µM (active) in assay [13]; < 0.01 µM (active) in assay [14]; 0.0419 µM (active) in assay [15]; < 0.01 µM (active) in [16]; < 0.01 µM (active) in assay [17]; < 0.01 µM (active) in [18]. Further, the GI50 in [19] was 0.0509 µM (active).
